Data published in patent US20060018940A1, “Stabilized antimicrobial composition” (E. I. DU PONT DE NEMOURS AND COMPANY, priority 2004, published 2006).
Values joined by “and” are separate entries in the source; they are usually repeats but may differ in a detail not shown here. Equal values may be shown once. “Also recorded” adds a separate entry of the source. Read-outs that look alike come from different tables or passages of the source.

Tests used:
Format in all cases: cell-based
[1] = system: Aspergillus fumigatus ATCC 1098; assay: Fungicidal activity (modified AOAC Method 955.17), surviving spores; conditions: for reduction of the fungal bioburden (words): within 15 minutes of treatment, amounts equivalent to those in the tablet solution
Experimental: This assay had several modifications from the published AOAC Fungicidal Activity of Disinfectants Protocol, Method 955.17. Aspergillus fumigatus ATCC 1098 was grown on Malt Extract Agar (available from Becton Dickinson, Billerica, Mass.) plates, and spores were harvested. Spores were stored in filter-sterilized Millipore water at −20° C. The spore preparation used for this experiment is detailed below. A freezer stock of A. fumigatus was defrosted and diluted to obtain an inoculum suspension for this experiment. The inoculum preparation was estimated to be approximately 5×10^6 conidia/mL. The following test solutions were prepared using filter sterilized Millipore water in steam-sterilized 4L bottles:
Water Control: (filter-sterilized water only), pH 6.28.
OXONE Control: 3.78 grams OXONE in 1 gallon (3.8L) sterile water, buffered to pH 4.43 using 0.98 g sodium bicarbonate and +5.25 g 10% H2SO4).
Chlorite Control: 0.26 grams of sodium chlorite in 1 gallon sterile water buffered to pH 4.55 (1.8 g 10% H2SO4).
Buffer Control: sodium bicarbonate, pH adjusted to 4.4.
Chlorine Dioxide: anthium dioxide (stabilized sodium chlorite available from IDI, North Kingston, R.I.) was acidified with HCl.
CLOROX control: 4.17% CLOROX bleach available from Clorox Company, Oakland, Calif. (v/v) in Millipore water by mixing 4.17 mL of Clorox bleach and water up to 100 mL total volume.
Tablet test Solution (Example 21: 2 tablets of Example 6 were dissolved in one gallon (3.8 L) of deionized water. The total tablet weight was 5.13 grams. The pH of the resulting solution was 5.2.
Reaction tubes: 5 mL of each test solution was aliquoted into 25×150 mm test culture tubes, capped and labeled according to Table 10. 9 mL of D/E (Dey/Engley) Neutralizing Broth (available from Becton Dickinson, Billerica, Mass.) was added to each of 28 test tubes and the tubes were capped. Butterfield buffer blanks were arranged for dilution of neutralized samples, and Malt Extract Agar plates were numbered for spore enumerations of the diluted, neutralized samples. With a graduated pipette, 0.5 mL of spore inoculum (approx. 10^6 condia/mL) was added to the first tube of test solution and gently shaken. After 5 and 15 minute exposures to the respective test solutions, samples were gently shaken and 1 mL samples were removed from each reaction mixture (spore-test solution) using an Eppendorf pipette and placed in 9 mL D/E (Dey/Engley) Neutralizing Broth. The inoculum was further diluted to approximately 10^4 condia/mL. Two more reaction tubes (water and OXONE-chlorite) and four Dey/Engley neutralization tubes were prepared to evaluate the efficacy of the tablet solution versus a final inoculum density of 10^3 condia/mL in the reaction tube. Samples were reacted for 15 minutes only. Dilutions of neutralized samples were prepared. Two 100 μL aliquots of all samples in D/E (Dey/Engley) Neutralizing Broth were plated on Malt Extract Agar and incubated at 25 °C until the appearance of colonies. Plates were counted after colonies appeared, roughly 4 days after incubation. Several dilutions of the inoculum spore suspensions were also plated on Malt Extract Agar to obtain an accurate count of viable spores used as inoculum. The samples were incubated at 25° C. and counted after the appearance of colonies, after about 4 days of incubation.
Buffer control data was taken after 15 minutes. CLOROX control data was taken after 5 minutes of treatment.

[2] = system: Staphylococcus aureus ATCC 6538; assay: Bacterial efficacy, suspension test (modified AOAC 965.13), plate count on TSA
[3] = system: Pseudomonas aeruginosa ATCC 15442; assay: as above
[4] = system: Salmonella choleraesuis ATCC 10708
[5] = 5 min, 1 × 10^6 conidia/mL inoculum in reaction mix, 2 replicates average, 2 Tabs 3.8 L, OXONE 3.78 g/gallon, chlorite 0.26 g/gallon, ClO2 ~23 ppm, 4.17% CLOROX
[6] = 15 min, 1 × 10^6 conidia/mL inoculum in reaction mix, 2 replicates average, 2 Tabs 3.8 L, OXONE 3.78 g/gallon, chlorite 0.26 g/gallon, ClO2 ~23 ppm
[7] = 30 sec exposure, 1,008 ppm Oxone, 55.5 ppm Chlorite, 23.2 ppm ClO2
[8] = 30 sec exposure, Example 20 = 1,008 ppm Oxone + 55.5 ppm Chlorite, controls 1,008 ppm Oxone, 55.5 ppm Chlorite, 23.2 ppm ClO2, low level of detection 1.0E+01
[9] = 10 min exposure, 1,008 ppm Oxone, 55.5 ppm Chlorite, 23.2 ppm ClO2
[10] = 10 min exposure, 1,008 ppm Oxone, 55.5 ppm Chlorite, 23.2 ppm ClO2, low level of detection 1.0E+01
[11] = 30 sec exposure, 1,008 ppm Oxone, 55.5 ppm Chlorite, 23.2 ppm ClO2, low level of detection 1.0E+01

## triple salt of potassium monopersulfate, potassium hydrogen sulfate and potassium sulfate [Oxone]
[1]; [5]
  Surviving bioburden counts (germinating spores - conidia/mL): 3.45E+05 conidia/mL
[1]; [6]
  Surviving bioburden counts (germinating spores - conidia/mL): 5.70E+05 conidia/mL
[1]
  reduction of the fungal bioburden (words): not able to reduce the bioburden; also recorded: ineffective in reducing the fungal bioburden
[2]; [7]
  Δt (log difference test and control densities): 0.0 log
[2]; [8]
  CFU/mL: 1.52E+06 CFU/mL
[2]; [9]
  Δt (log difference test and control densities): 0.4 log
[2]; [10]
  CFU/mL: 6.15E+05 CFU/mL
[3]; [7]
  Δt (log difference test and control densities): 0.0 log
[3]; [11]
  CFU/mL: 9.50E+05 CFU/mL
[3]; [9]
  Δt (log difference test and control densities): 5.1 log
[3]; [10]
  CFU/mL: 1.00E+01 CFU/mL

## [O][Cl+][O-] [ClO2, chlorine dioxide]
[1]
  Surviving bioburden counts (germinating spores - conidia/mL): 0.00E+00 conidia/mL
  log A. fumigatus spores killed: 5 log
[4]
  CFU/mL: 1.00E+01 CFU/mL
  Δt (log difference test and control densities): 5.1 log and 5.3 log
[2]
  CFU/mL: 1.00E+01 CFU/mL
  Δt (log difference test and control densities): 5.1 log and 5.2 log
[3]
  CFU/mL: 1.00E+01 CFU/mL
  Δt (log difference test and control densities): 5 log and 5.0 log and 5.1 log

## sodium chlorite
[1]; [5]
  Surviving bioburden counts (germinating spores - conidia/mL): 4.25E+05 conidia/mL
[1]; [6]
  Surviving bioburden counts (germinating spores - conidia/mL): 6.25E+05 conidia/mL
[1]; listed as chlorite
  reduction of the fungal bioburden (words): not able to reduce the bioburden
[1]; listed as sodium chlorite
  reduction of the fungal bioburden (words): ineffective in reducing the fungal bioburden
[4]; [7]
  Δt (log difference test and control densities): −0.3 log
[4]; [11]
  CFU/mL: 3.09E+06 CFU/mL
[4]; [9]
  Δt (log difference test and control densities): 0.2 log
[4]; [10]
  CFU/mL: 1.27E+06 CFU/mL
[2]; [7]
  Δt (log difference test and control densities): 0.0 log
[2]; [8]
  CFU/mL: 1.23E+06 CFU/mL
[2]; [9]
  Δt (log difference test and control densities): 0.1 log
[2]; [10]
  CFU/mL: 1.20E+06 CFU/mL
[3]; [7]
  Δt (log difference test and control densities): −0.1 log
[3]; [11]
  CFU/mL: 1.17E+06 CFU/mL
[3]; [9]
  Δt (log difference test and control densities): 0.0 log
[3]; [10]
  CFU/mL: 1.21E+06 CFU/mL
